Data published in ChEMBL document CHEMBL4842364 (J Med Chem, 2021).

What was measured:
[1] = system: NCI-H23; assay: Antiproliferative activity against human NCI-H23 cells assessed as reduction in cell viability after 4 days by CellTiter-Glo assay; settings: Homo sapiens, NCI-H23, 96 h
[2] = Octanol/buffer distribution coefficient, logD of the compound at pH 7.4; type: physicochemical
[3] = Intrinsic clearance in mouse microsomes; type: ADME, Microsome
[4] = AUC(0 to 24 hrs) in mouse at 10 mg/kg, po; type: ADME, organism-based; set-up: time < 24 hr, route oral, dose 10 mg/kg; settings: in vivo
[5] = molecular target: Wee1-like protein kinase (Homo sapiens, UniProt P30291)
Sequence of Wee1-like protein kinase (P30291 whole entry): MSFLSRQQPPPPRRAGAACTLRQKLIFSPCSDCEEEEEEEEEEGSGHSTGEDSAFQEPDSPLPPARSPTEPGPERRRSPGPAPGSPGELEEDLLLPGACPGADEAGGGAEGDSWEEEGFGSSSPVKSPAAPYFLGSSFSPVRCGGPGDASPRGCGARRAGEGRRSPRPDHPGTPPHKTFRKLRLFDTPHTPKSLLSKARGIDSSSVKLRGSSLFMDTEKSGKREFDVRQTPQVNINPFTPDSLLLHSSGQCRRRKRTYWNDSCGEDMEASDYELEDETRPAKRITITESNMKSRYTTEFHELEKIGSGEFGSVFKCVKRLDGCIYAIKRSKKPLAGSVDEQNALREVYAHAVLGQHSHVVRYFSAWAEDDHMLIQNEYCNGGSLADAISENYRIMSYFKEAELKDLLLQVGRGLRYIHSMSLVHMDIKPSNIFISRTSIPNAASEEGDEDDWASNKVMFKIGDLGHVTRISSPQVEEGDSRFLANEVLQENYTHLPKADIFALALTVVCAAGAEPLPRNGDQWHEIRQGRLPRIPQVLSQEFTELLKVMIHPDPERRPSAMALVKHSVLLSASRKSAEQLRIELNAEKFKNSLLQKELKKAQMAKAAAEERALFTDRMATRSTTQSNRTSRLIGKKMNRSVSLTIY
Description: Displacement of Alexa Fluor labelled kinase tracer178 from WEE1 (unknown origin) incubated for 60 mins by FRET assay

[6] = AUC(0 to 24 hrs) in mouse at 60 mg/kg, po; type: ADME, organism-based; set-up: time < 24 hr, route oral, dose 60 mg/kg; settings: in vivo
[7] = Intrinsic clearance in human microsomes; type: ADME, Microsome
[8] = AUC(0 to 24 hrs) in rat at 60 mg/kg, po; type: ADME, organism-based; set-up: time < 24 hr, route oral, dose 60 mg/kg; settings: in vivo
[9] = Plasma protein binding in human; type: ADME, cell-free; settings: read-out: PPB (converted)
[10] = molecular target: Cytochrome P450 3A4 (Homo sapiens, UniProt P08684); assay: Inhibition of CYP3A4 (unknown origin); type: ADME
Sequence of Cytochrome P450 3A4 (P08684 whole entry): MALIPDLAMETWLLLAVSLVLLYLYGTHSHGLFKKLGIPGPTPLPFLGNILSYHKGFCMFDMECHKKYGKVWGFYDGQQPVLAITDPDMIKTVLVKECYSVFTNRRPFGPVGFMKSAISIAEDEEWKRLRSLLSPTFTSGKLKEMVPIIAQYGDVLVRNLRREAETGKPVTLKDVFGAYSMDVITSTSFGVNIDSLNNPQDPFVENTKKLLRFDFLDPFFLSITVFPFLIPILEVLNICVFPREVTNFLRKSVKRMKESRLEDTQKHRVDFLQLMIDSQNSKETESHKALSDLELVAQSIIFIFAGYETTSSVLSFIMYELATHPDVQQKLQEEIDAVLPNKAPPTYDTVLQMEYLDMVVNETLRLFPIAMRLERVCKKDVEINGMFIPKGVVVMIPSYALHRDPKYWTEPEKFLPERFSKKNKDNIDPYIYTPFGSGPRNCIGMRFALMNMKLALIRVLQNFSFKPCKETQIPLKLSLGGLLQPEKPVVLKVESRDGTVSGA

[11] = Permeability of the compound across apical to basolateral side in human Caco-2 cells; type: ADME, cell-based; settings: read-out: permeability
[12] = Permeability of the compound across basolateral to apical side in human Caco-2 cells; type: ADME, cell-based; settings: read-out: permeability
[13] = Efflux ratio of permeability from basolateral to apical side over apical to basolateral side in human Caco-2 cells; type: ADME, cell-based

For `C=CCn1c(=O)c2cnc(Nc3ccc4c(c3)CN(C)CC4)nc2n1-c1cccc(C(C)(C)O)n1`, the IC50 [1] was 64 nM, the logD [2] was 2.4 and the CLint scaled [3] was 603 mL/min/kg. It also gave an AUC(0-t) at 24 h [4] of 1 µM·h and an IC50 [5] of 2.6 nM.
Compound `C=CCn1c(=O)c2cnc(Nc3ccc4c(c3)CNCC43CC3)nc2n1-c1cccc(C(C)(C)O)n1` has an IC50 [1] of 54 nM, a logD [2] of 1.9 and a CLint scaled [3] of 1400 mL/min/kg. It also gave an AUC(0-t) at 24 h [6] of 6.4 µM·h and an IC50 [5] of 2.4 nM.
For `C=CCn1c(=O)c2cnc(Nc3ccc(N4CCN(C)CC4)cc3)nc2n1-c1ccc2c(n1)C(C)(O)CO2` (single isomer, unassigned), the IC50 [1] was 1420 nM, the logD [2] was 1.4 and the CLint scaled [7] was 17 mL/min/kg. The CLint scaled [3] was less than 38 mL/min/kg and the IC50 [5] was 4.6 nM.
For `C=CCn1c(=O)c2cnc(Nc3ccc(N4CCNCC4)cc3)nc2n1-c1ccc2c(n1)[C@@](O)(CC)CC2`, the IC50 [1] was 212 nM, the logD [2] was 1 and the CLint scaled [7] was 26 mL/min/kg. The CLint scaled [3] was 52 mL/min/kg, the AUC(0-t) at 24 h [6] was 1 µM·h and the IC50 [5] was 3.2 nM.
`C=CCn1c(=O)c2cnc(Nc3cc(N4CCN(C)CC4)c4ccn(C)c4c3)nc2n1-c1ccc2c(n1)[C@@](O)(CC)CC2` gave an IC50 [1] of 109 nM, a logD [2] of 2.7 and a CLint scaled [7] of 41 mL/min/kg. It also gave a CLint scaled [3] of 395 mL/min/kg, an AUC(0-t) at 24 h [6] of 14 µM·h and an IC50 [5] of 12 nM.
For `C=CCn1c(=O)c2cnc(Nc3ccc(N4CCN(C)CC4)cc3)nc2n1-c1ccc2c(c1)C(C)(O)CC2` (single isomer, unassigned), the IC50 [1] was 186 nM, the logD [2] was 2.5 and the CLint scaled [7] was 26 mL/min/kg. It also gave a CLint scaled [3] of 206 mL/min/kg, an AUC(0-t) at 24 h [6] of 19 µM·h and an AUC(0-t) at 24 h [8] of 17 µM·h. The IC50 [5] was 3.3 nM.
For `C=CCn1c(=O)c2cnc(Nc3ccc(N4CCN(C)CC4)cc3)nc2n1-c1ccc2c(n1)[C@@](C)(O)CC2`, the IC50 [1] was 1140 nM, the logD [2] was 2 and the CLint scaled [7] was 18 mL/min/kg. The CLint scaled [3] was less than 8.6 mL/min/kg, the AUC(0-t) at 24 h [6] was 21 µM·h and the AUC(0-t) at 24 h [8] was 14 µM·h. The IC50 [5] was 5.2 nM.
For `C=CCn1c(=O)c2cnc(Nc3ccc(N4CCN(C)CC4)cc3)nc2n1-c1ccc2c(n1)C(O)CC2` (stereo in doubt; 8), the IC50 [1] was 2300 nM, the logD [2] was 1.7 and the CLint scaled [7] was 12 mL/min/kg. For the same compound, the CLint scaled [3] was less than 38 mL/min/kg, the AUC(0-t) at 24 h [8] was 0.3 µM·h and the IC50 [5] was 5.7 nM.
In the case of `CC[C@@]1(O)CCc2ccc(-n3c4nc(Nc5ccc(N6CCN(C)CC6)cc5)ncc4c(=O)n3CC=C(F)F)nc21`, the IC50 [1] is reported as 5780 nM and the IC50 [5] is reported as 22 nM.
`C=CCn1c(=O)c2cnc(Nc3ccc(N4CCN(C)CC4)c(C)c3)nc2n1-c1ccc2c(n1)[C@](C)(O)CC2` showed an IC50 [1] of 130 nM, a logD [2] of 2.6 and a CLint scaled [7] of 80 mL/min/kg. The CLint scaled [3] was 121 mL/min/kg, the AUC(0-t) at 24 h [6] was 52 µM·h and the AUC(0-t) at 24 h [8] was 40 µM·h. It also gave an IC50 [5] of 2.3 nM.
`C=CCn1c(=O)c2cnc(Nc3ccc4c(c3)CNCC43CC3)nc2n1-c1ccc2c(n1)[C@@](O)(C(F)(F)F)CC2` showed an IC50 [1] of 153 nM, a logD [2] of 2.1 and a CLint scaled [7] of 97 mL/min/kg. For the same compound, the CLint scaled [3] was 555 mL/min/kg and the IC50 [5] was 2.5 nM.
Compound `Cc1cn(-c2c(Cl)cccc2Cl)c(=O)c2cnc(Nc3ccc(N4CCN(C)CC4)cc3)nc12` has an IC50 [1] of 226 nM, a logD [2] of 3.4 and a fraction unbound [9] of 0.027. The CLint scaled [7] was 39 mL/min/kg, the IC50 [10] was 4500 nM and the Papp A→B [11] was 1.5 ×10⁻⁶ cm/s. It also gave a Papp B→A [12] of 1.8 ×10⁻⁶ cm/s, an efflux ratio [13] of 1.1 and an IC50 [5] of 2 nM.
With `C=CCn1c(=O)c2cnc(Nc3ccc4c(ccn4C4CCN(C)CC4)c3)nc2n1-c1ccc2c(n1)[C@@](O)(CC)CC2` the IC50 [1] was 116 nM, the logD [2] was 2.7 and the CLint scaled [7] was 267 mL/min/kg. It also gave a CLint scaled [3] of 124 mL/min/kg and an IC50 [5] of 2.6 nM.
Compound `C=CCn1c(=O)c2cnc(Nc3ccc(N4CCN(C)CC4)cc3)nc2n1-c1ccc2c(n1)C(F)(F)CC2` has an IC50 [1] of 1530 nM, a logD [2] of 2.8 and a CLint scaled [7] of 48 mL/min/kg. It also gave a CLint scaled [3] of 293 mL/min/kg and an IC50 [5] of 6.4 nM.
`C=CCn1c(=O)c2cnc(Nc3ccc(N4CCN(C)CC4)cc3)nc2n1-c1ccc2c(n1)C(O)(C1CC1)CC2` (single isomer, unassigned) gave an IC50 [1] of 186 nM, a logD [2] of 2.4 and a CLint scaled [7] of 39 mL/min/kg. It also gave a CLint scaled [3] of 78 mL/min/kg and an IC50 [5] of 2.9 nM.
